# According to PubChem BioAssay AID1963986 (Molecular Pharmacology Branch, DTP, NCI, 2024):
# System: 171881-019-R-J1-PDC tumor spheroid viability
# Test: Anticancer human tumor 171881-019-R-J1-PDC patient-derived invasive breast carcinoma cell line growth inhibition [PI3K]
# Settings: spheroids with HUVEC and MSC; for IC50: curve of first compound; for viability, T/C: stronger effect = lower value
# Excerpt: Combinatorial screen of targeted agents with the PI3K inhibitors inavolisib, alpelisib, duvelisib, and copanlisib in multi-cell type tumor spheroids
# A high-throughput screen of multi-cell type tumor spheroids was designed to identify active combinations of targeted small molecules and PI3K pathway inhibitors. Complex spheroids include a stromal component modeled by human endothelial cells (HUVEC) and fibroblasts modeled by human mesenchymal stem cells (MSCs). The concentration ranges selected for each drug and investigational agent were based upon clinically achievable concentrations if the clinical Cmax of the agent was known.
# Compounds. The drugs and investigational agents: inavolisib (NSC800729), alpelisib (NSC765974), duvelisib (NSC772469), copanlisib (NSC816437), ipatasertib (NSC767898), afuresertib (NSC778305), talazoparib (NSC767125), sapanisertib (NSC764658), selumetinib (NSC741078), tovorafenib (DAY101, NSC766906), vemurafenib (NSC761431), ravoxertinib (NSC781343), sotorasib (NSC818433), MRTX1133 (NSC 836407), abemaciclib (NSC 768073), palbociclib (NSC758247), venetoclax (NSC 766270), SY5609 (NSC837396), enzalutamide (NSC755605), and darolutamide (NSC825331), were obtained from the National Cancer Institute (NCI) Developmental Therapeutics Program Chemical Repository. The FDA-approved anticancer drug set is available from the NCI Developmental Therapeutics Program. […] The stock solutions were prepared in dimethyl sulfoxide (DMSO, Sigma-Aldrich, St. Louis, MO, cat. D2650) at 800-fold the tested concentration and stored at -70 degrees C prior to their use. All drugs and investigational agents were tested over a range starting from a high concentration at or near the clinical Cmax and decreasing in half-log increments. If the clinical Cmax for an agent had not been determined, the highest concentration tested was 10 microM.
# Cell Culture. All cells were maintained in an incubator at 37 degrees C and 5% CO2 with 95% humidity. The PDC lines were cultured according to standard operating procedures established by the NCI PDMR (https://pdmr.cancer.gov/sops/default.htm). All PDCs were thawed and cultured in Matrigel-coated flasks prepared with a working solution of 1X Ham's F-12 nutrient mix, without supplementation (Invitrogen, Waltham, MA, cat. 11765054), 100 U/mL penicillin-streptomycin (Invitrogen, cat. 15140122), and 2.5% Matrigel (Corning Inc., Corning, NY, cat. 354248) for the first three passages. The 354836-022-R-J1-PDC, 475296-252-R-J1-PDC, and 997726-040-R-J2-PDC lines were cultured in 6A media, which includes advanced DMEM/F-12 (Thermo Fisher Scientific, cat. 12634028), 10 mM HEPES (Thermo Fisher Scientific, cat. 15630080), 1X GlutaMAX supplement (Thermo Fisher Scientific, cat. 35050061), 0.1 mg/mL primocin (InvivoGen, San Diego, CA, cat. ant-pm-2), 10% defined fetal bovine serum, heat inactivated (HyClone Laboratories Inc., Logan, UT, cat. SH30070.03HI), 50% L-WRN conditioned media (ATCC, cat. CRL-3276), 1.25 mM N-Acetyl-L-cysteine (Sigma-Aldrich, cat. A9165), 10 mM nicotinamide (Sigma-Aldrich, cat. N0636), 1X B-27 supplement (Thermo Fisher Scientific, cat. 17504044), 1X N-2 supplement (Thermo Fisher Scientific, cat. 17502048), and 10 microM Y-27632 dihydrochloride (Tocris Bioscience, Bristol, United Kingdom, cat. 1254). The 624824-186-R-J2-PDC line was cultured in 6C/Colon 1B media, which includes all 6A media components plus 50 ng/mL human EGF recombinant protein (Thermo Fisher Scientific, cat. PHG0311). […]
# [1] = second compound 0.0316 µM, first compound 0.0316 µM
# [2] = second compound 0.0316 µM, first compound 0.1 µM
# [3] = second compound 0.0316 µM, first compound 0.316 µM
# [4] = second compound 0.0316 µM, first compound 1 µM
# [5] = second compound 0.0316 µM, first compound 3.16 µM
# [6] = second compound 0.0316 µM, first compound 10 µM
# [7] = second compound 0.1 µM, first compound 0.0316 µM
# [8] = second compound 0.1 µM, first compound 0.1 µM
# [9] = second compound 0.1 µM, first compound 0.316 µM
# [10] = second compound 0.1 µM, first compound 1 µM
# [11] = second compound 0.1 µM, first compound 3.16 µM
# [12] = second compound 0.1 µM, first compound 10 µM
# [13] = second compound 0.316 µM, first compound 0.0316 µM
# [14] = second compound 0.316 µM, first compound 0.1 µM
# [15] = second compound 0.316 µM, first compound 0.316 µM
# [16] = second compound 0.316 µM, first compound 1 µM
# [17] = second compound 0.316 µM, first compound 3.16 µM
# [18] = second compound 0.316 µM, first compound 10 µM
# [19] = second compound 1 µM, first compound 0.0316 µM
# [20] = second compound 1 µM, first compound 0.1 µM
# [21] = second compound 1 µM, first compound 0.316 µM
# [22] = second compound 1 µM, first compound 1 µM
# [23] = second compound 1 µM, first compound 3.16 µM
# [24] = second compound 1 µM, first compound 10 µM
# 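Also: spheroids exposed to compound for 7 days before viability read.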
# 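For viability, T/C in this document: 100% = DMSO vehicle-treated spheroids.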
smiles,measurement,setting,value
Cn1ncc(Cl)c1-c1cc(C(=O)NC(CN)Cc2cccc(F)c2)sc1Cl (centres undefined) + CC(Nc1ncnc2nc[nH]c12)c1cc2cccc(Cl)c2c(=O)n1-c1ccccc1,IC50,second compound 0.0316 µM,144 nM
same,IC50,second compound 0.1 µM,174 nM
same,IC50,second compound 0.316 µM,164 nM
same,IC50,second compound 1 µM,150 nM
same,IC50,second compound 3.16 µM,125 nM
same,IC50,second compound 10 µM,70.7 nM
same,"viability, T/C",[1],88.2%
same,"viability, T/C",[2],58.2%
same,"viability, T/C",[3],32.5%
same,"viability, T/C",[4],20.9%
same,"viability, T/C",[5],13.4%
same,"viability, T/C",[6],3.64%
same,"viability, T/C",[7],81.7%
same,"viability, T/C",[8],64.9%
same,"viability, T/C",[9],33.2%
same,"viability, T/C",[10],20.6%
same,"viability, T/C",[11],13.3%
same,"viability, T/C",[12],6.15%
same,"viability, T/C",[13],86.4%
same,"viability, T/C",[14],62.4%
same,"viability, T/C",[15],32.8%
same,"viability, T/C",[16],21.4%
same,"viability, T/C",[17],13.1%
same,"viability, T/C",[18],4.15%
same,"viability, T/C",[19],72.2%
same,"viability, T/C",[20],59.6%
same,"viability, T/C",[21],33.7%
same,"viability, T/C",[22],18.5%
same,"viability, T/C",[23],11.6%
same,"viability, T/C",[24],3.79%
same,"viability, T/C","second compound 3.16 µM, first compound 0.0316 µM",78.5%
same,"viability, T/C","second compound 3.16 µM, first compound 0.1 µM",55.3%
same,"viability, T/C","second compound 3.16 µM, first compound 0.316 µM",30.4%
same,"viability, T/C","second compound 3.16 µM, first compound 1 µM",17.1%
same,"viability, T/C","second compound 3.16 µM, first compound 3.16 µM",9%
same,"viability, T/C","second compound 3.16 µM, first compound 10 µM",2.75%
same,"viability, T/C","second compound 10 µM, first compound 0.0316 µM",62.5%
same,"viability, T/C","second compound 10 µM, first compound 0.1 µM",44.8%
same,"viability, T/C","second compound 10 µM, first compound 0.316 µM",25.2%
same,"viability, T/C","second compound 10 µM, first compound 1 µM",12.3%
same,"viability, T/C","second compound 10 µM, first compound 3.16 µM",6.81%
same,"viability, T/C","second compound 10 µM, first compound 10 µM",2.88%
CNC(=O)c1ccc(N2C(=S)N(c3ccc(C#N)c(C(F)(F)F)c3)C(=O)C2(C)C)cc1F + CC(Nc1ccc2c(c1)OCCn1cc(N3C(=O)OCC3C(F)F)nc1-2)C(N)=O,IC50,second compound 0.00316 µM,> 10000 nM
same,IC50,second compound 0.01 µM,> 10000 nM
same,IC50,second compound 0.0316 µM,3830 nM
same,IC50,second compound 0.1 µM,< 31.6 nM
same,IC50,second compound 0.316 µM,< 31.6 nM
same,IC50,second compound 1 µM,< 31.6 nM
same,"viability, T/C","second compound 0.00316 µM, first compound 0.0316 µM",82.6%
same,"viability, T/C","second compound 0.00316 µM, first compound 0.1 µM",88%
same,"viability, T/C","second compound 0.00316 µM, first compound 0.316 µM",82.4%
same,"viability, T/C","second compound 0.00316 µM, first compound 1 µM",93.6%
same,"viability, T/C","second compound 0.00316 µM, first compound 3.16 µM",81%
same,"viability, T/C","second compound 0.00316 µM, first compound 10 µM",69.5%
same,"viability, T/C","second compound 0.01 µM, first compound 0.0316 µM",75.1%
same,"viability, T/C","second compound 0.01 µM, first compound 0.1 µM",73.8%
same,"viability, T/C","second compound 0.01 µM, first compound 0.316 µM",77%
same,"viability, T/C","second compound 0.01 µM, first compound 1 µM",74.5%
same,"viability, T/C","second compound 0.01 µM, first compound 3.16 µM",78.3%
same,"viability, T/C","second compound 0.01 µM, first compound 10 µM",62.3%
same,"viability, T/C",[1],55.2%
same,"viability, T/C",[2],56.7%
same,"viability, T/C",[3],57%
same,"viability, T/C",[4],56.6%
same,"viability, T/C",[5],53.1%
same,"viability, T/C",[6],33.8%
same,"viability, T/C",[7],39.1%
same,"viability, T/C",[8],41.5%
same,"viability, T/C",[9],38.1%
same,"viability, T/C",[10],39.9%
same,"viability, T/C",[11],38%
same,"viability, T/C",[12],30.5%
same,"viability, T/C",[13],28.2%
same,"viability, T/C",[14],27.9%
same,"viability, T/C",[15],25.2%
same,"viability, T/C",[16],28.5%
same,"viability, T/C",[17],24.8%
same,"viability, T/C",[18],22.1%
same,"viability, T/C",[19],20.8%
same,"viability, T/C",[20],21.3%
same,"viability, T/C",[21],24.9%
same,"viability, T/C",[22],18.5%
same,"viability, T/C",[23],20.1%
same,"viability, T/C",[24],18.7%
